Like-named read-outs stand apart in the source and are kept apart here.
What was measured:
[1] = test system: M. tuberculosis; settings: against M. tuberculosis; cited from earlier work
[2] = test system: M. tuberculosis H37Rv; assay type: in vivo
[3] = in vivo; set-up: species or system Balb/c mice; settings: male, Balb/c, mouse, po, 30 mg/kg
Method: Samples were analyzed by LC-MS.
(A) Mouse survival curves from maximum tolerated dose study. All mice (n = 5) received one dose daily 6 times weekly for 4 weeks. 80% aqueous propylene glycol, (vehicle control).
Half-life and sequential exposure time of drug in serum is critical for its in vivo efficacious activity.

SMILES | MIC [1] | further results
CC(=O)NC[C@H]1CN(c2ccc(N3CCOCC3)c(F)c2)C(=O)O1 [Linezolid] | 0.25 to 1 µg/mL | –
O=[N+]([O-])c1cn2c(n1)OC[C@@H](OCc1ccc(OC(F)(F)F)cc1)C2 [PA-824] | 0.015 to 0.25 µg/mL | –
C[C@]1(COc2ccc(N3CCC(Oc4ccc(OC(F)(F)F)cc4)CC3)cc2)Cn2cc([N+](=O)[O-])nc2O1 [Delamanid] | 0.006 to 0.024 µg/mL | –
CO[C@H]1/C=C/O[C@@]2(C)Oc3c(C)c(O)c4c(O)c(c(/C=N/N5CCN(C)CC5)c(O)c4c3C2=O)NC(=O)/C(C)=C\C=C\[C@H](C)[C@H](O)[C@@H](C)[C@@H](O)[C@@H](C)[C@H](OC(C)=O)[C@@H]1C [RMP, rifampicin] | 0.003 µM | reduction of M. tuberculosis bacterial load in the lung ([2]; in vivo): 0.23 log10; reduction of M. tuberculosis bacterial load in the spleen ([2]; in vivo): 0.35 log10
NNC(=O)c1ccncc1 [INH, isoniazid] | 0.3 µM | reduction of M. tuberculosis bacterial load in the spleen ([2]; relative to counts at initiation of chemotherapy (4.26 log10), Balb/c mice, oral once daily 6 times per week for 4 weeks, ND-09759 30 mg/kg, INH 25 mg/kg, RMP 20 mg/kg): 0.38 log10; reduction of M. tuberculosis bacterial load in the lung ([2]; relative to counts at initiation of chemotherapy (5.18 log10), Balb/c mice, oral once daily 6 times per week for 4 weeks, ND-09759 30 mg/kg, INH 25 mg/kg, RMP 20 mg/kg): 0.27 log10
COc1nc2ccc(Br)cc2cc1[C@@H](c1ccccc1)[C@@](O)(CCN(C)C)c1cccc2ccccc12 [TMC 207] | 0.030−0.120 µg/ml | –
CC(C)=CCC/C(C)=C/CNCCNC1C2CC3CC(C2)CC1C3 (centres unmarked) [SQ109] | 0.7 to 1.56 µM | –
Cc1ccn2c(C(=O)NCc3ccc(Oc4ccc(Cl)cc4)cc3)c(C)nc2c1 [ND-09759, N-(4-(4-chlorophenoxy)benzyl)-2,7-dimethylimidazo[1,2-a]pyridine-3-carboxamide] | – | AUC(0-t) [3]: 22200 ng·h/mL; Cmax [3]: 2900 ng/mL; half-life [3]: 20.1 h
